# Values of other authors in patent US20090170823A1, “Dosage Regimens and Pharmaceutical Compositions and Packages for Emergency Contraception” (Duramed Pharmaceuticals, Inc., priority 2007, published 2009).
# Conditions: relative to 30 μg ethinyl estradiol; see EP 0 253 607
row,SMILES,amount roughly equivalent to 30 μg of ethinyl estradiol
1,C[C@]12CC[C@@H]3c4ccc(O)cc4CC[C@H]3[C@@H]1CC[C@@H]2O [17β-estradiol],"~2,000 μg"
2,C#C[C@]1(O)CC[C@H]2[C@@H]3CCc4cc(OC)ccc4[C@H]3CC[C@@]21C [mestranol],~60 µg
